The nature of series [1]: Carrageen oedema in the conscious rat (anti-inflammatory activity). It counts as in vivo. The following applies: 60 mg/kg ip.
Method: Anti-inflammatory activity was evaluated by the method of Winter and colleagues (Proc. Soc. Exp. Biol., 111, 544, 1962) by endoperitoneally injecting the product under examination one hour before inducing oedema by injecting 0.05 ml. of a 1% suspension of carrageen (intradermally into the plantar portion of a rear paw).
The difference between the volume of the paw determined plethysmographically one hour before and three hours after the carrageen gives a quantitative estimate of the activity of the product tested. Where possible, the ED30 was calculated.
Series [2] in a line: Ulcers by constriction (stress) in the rat. Particulars: 4 h, rat, 30 mg/kg ip. Format: in vivo.
Method: The method described by Rossi and colleagues (Compt. Rend. Soc. Biol., 150, 2124, 1956) was followed in which the formation of gastric ulcers is induced by immobilising the animal, in a state of fast for 48 hours, in a net for a period of 4 hours.
The protection given by treatment with the drug under examination before the beginning of the constriction period is evaluated by counting both the ulcers and the number of subjects without ulcers.
A short description of series [3]: Acute toxicity rat LD50 iv. Particulars: in vivo.
A short description of series [4]: Pinching the tail of the mouse (systemic analgesic activity). Format: in vivo. The following applies: po, 0.5 h; mouse, 60 mg/kg os, 30 minutes; read-out: Systemic analgesic activity, tail pinching in mouse, %.
Method: To evaluate the analgesic activity, the method described by Bianchi and colleagues (Brit. J. Pharmacol., 9, 280, 1954) was followed which consists of applying an arterial pincer to the base of the tail in animals treated orally 30 minutes previously with the drug under examination, observing that the control animals react to the pain by squealing.
Series [5] is described as follows: Inhibition of spontaneous motility in the mouse. Format: in vivo. Particulars: po, 0.5 h; mouse, os, 30 minutes after treatment; read-out: Spontaneous motility inhibition mouse ED50.
The test system of a further series is isolated rabbit atrium. The experiment in a line: Arrhythmias induced by electrical stimulation of the isolated rabbit atrium (anti-arrhythmic activity). How it is done: (§1) The ED30 in the presence of scalar concentrations of anti-arrhythmic substances was measured.
Assay in series [6]: as above
Particulars: TD / ED30, isolated rabbit atrium; read-out: I.T. (2), therapeutic index from the ratio TD/ED30. The method, then: as §1

A short description of series [7]: Acute toxicity under LD50 mouse. Particulars: in vivo, ip.
The nature of series [8]: Fibrillation induced by CaCl2 of the rat anaesthetised with urethane (anti-arrhythmic activity). Format: in vivo. How it is done: Fibrillation induced by CaCl2 of the rat anaesthetised with urethane (1 g/kg ip)
The method described by Malinow and colleagues (Rev. Argent. Cardiol., 19, 120, 1952) was followed, which consists of inducing cardiac fibrillation by administering intravenously 2 ml/kg of an 8% solution of CaCl2 in rats pretreated intravenously with scalar doses of anti-arrhythmics. The ED50 was calculated for each active drug.

Series [9] can be described thus: Antagonism towards electric shock convulsions in the mouse. Particulars: po, 0.5 h; mouse, 60 mg/kg os, 35 volt; read-out: Anti-convulsion activity, electric shock, mouse, % att. Format: in vivo.
Method: This is evaluated by observing the protection given by pretreatment with the drug (30 minutes) against tonic convulsions obtained by applying a 35 volt current to the eyeballs.
Series [10] relates to Rabbit platelet aggregation. The experiment in a line: Rabbit platelet aggregation in vitro. It counts as cell-based. Particulars: Oryctolagus cuniculus, rabbit PRP, aggregation by sodium adenosine diphosphate, read-out: Platelet anti-aggregation activity, rabbit in vitro ED50. The method, then: Rabbit platelet aggregation in vitro The method of […] (Pharmacology, 7, 115, 1972) was followed. Blood taken from conscious rabbits is centrifuged in the presence of sodium citrate (3.8%) at 350 g. for 10 minutes, so as to separate the plasma rich in platelets (PRP) from the rest. The aggregation of the platelets is carried out by bringing the PRP into contact with adequate doses of sodium adenosine diphosphate in the presence of a possible inhibitor or its carrier. The measurement of aggregation is made continuously by a turbidimetric method.

Series [11] is described as follows: Cataleptic activity in the mouse. It counts as in vivo. The following applies: po; mouse, os; read-out: Cataleptic activity mouse ED50.
For a further series, the system named is nor-adrenalin. The series is described as follows: Antagonism towards a lethal dose of nor-adrenalin in the rat (α-adrenolytic activity). The following applies: rat, 15 mg/kg os. It counts as in vivo. The method, then:
Antagonism towards a lethal dose of nor-adrenalin in the rat
The animals are treated with a dose of nor-adrenalin (0.5 mg/kg) which is 100% lethal in animals. The activity is calculated by the number of animals protected from death by prior administration of the drug under examination one hour before the agonist. Where possible the ED50 was calculated.

SMILES strings stand for the structures.

Turning to `Cl.O=c1[nH]c(-c2ccc(F)cc2)c(CCN2CCOCC2)s1` [LR 618, 4-p-fluorophenyl-5-β-morpholinoethyl-4-thiazolin-2-one hydrochloride], in series [1], the “Anti-inflammatory activity carrageenin oedema rat, percentage activity (ED30 lacking)” value came to 9.8%. The responders at 30 mg/kg in series [2] (read-out: Anti-ulcer activity, ulcers by stress in the rat, Protected rats %) turned out to be 50%. Moreover, in [2] (read-out: Anti-ulcer activity, ulcers by stress in the rat, Reduction in ulcers %), the inhibition in vivo at 30 mg/kg is 71%. The results for the LD50 in series [3] and in series [7] were 130 mg/kg and 250 mg/kg, respectively. Moreover, the inhibition in vivo at 60 mg/kg in [4] worked out at 40%; in [9], 10%. Also, the ED50 in [5] amounted to 60 mg/kg; in series [8] (rat anaesthetised with urethane, iv) it was 15 mg/kg; in series [11], 60 mg/kg. Moreover, the EC30 in the series on isolated rabbit atrium (Oryctolagus cuniculus, read-out: anti-arrhythmic activity, Electrical stimulation in isolated rabbit atrium ED30) was determined as 35.4 µg/mL. In addition, in the series with isolated rabbit atrium (rabbit), the “TD (dose which abolishes the spontaneous contraction of the atrium)” value worked out at 300 µg/mL. For the same compound, the selectivity ratio in series [6] amounted to 8.5; in series [8] (in vivo, LD50 rat iv / ED50 CaCl2, read-out: I.T. (1), therapeutic index from the ratio LD50 rat iv/ED50) it was 9. In addition, the IC50 in series [10] was found to be 650 µg/mL. The “α-adrenolytic activity lethal NA rat, percentage activity (ED50 lacking)” value with nor-adrenalin is recorded as 0%.

The values are drawn from patent US4061637A, “Certain 4-aryl-5-(4-phenylpiperazino)alkyl-4-thiazolin-2-ones” (priority 1974, dated 1977).
